Measured values reported in patent publication US6737383B1, “Herbicidal oxadiazolidines” (priority 1999, dated 2004).

Tested on: crabgrass
Test: Test A crabgrass
Assay type: in vivo, Digitaria spp.
Conditions: 0 to 10 scale where 0 is no effect and 10 is complete control
How it was run: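 Injury scored visually after about eleven greenhouse days against untreated plants, 0 = no effect, 10 = complete control. Compounds, formulated in surfactant-containing non-phytotoxic solvent, were applied as preemergence soil drench to sandy loam plantings and as postemergence runoff spray at the 1–2 leaf stage.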

## CCN(CC)C(=O)n1oc(=O)n(-c2ccc(OC)cc2)c1=O [Compound 1]
Postemergence, Rate 1000 g/ha
  Plant response rating, Crabgrass: 5
Pre-emergence, Rate 2000 g/ha
  Plant response rating, Crabgrass: 9
